Results taken from the supplement of paper PMC13207355.

Tests used:
Conditions in all cases: exposure time: 72 h
E21 [1] = patient-derived glioblastoma stem cells of mesenchymal subtype; assay: surviving fraction (nuclei count normalised to DMSO); higher = more cells surviving (less toxic)
FT3469 [2] = normal neural stem cell line; assay: as above
E57 [3] = patient-derived glioblastoma stem cells of mesenchymal subtype; assay: as above
E13 [4] = patient-derived glioblastoma stem cells of classical subtype; assay: as above
E31 [5] = patient-derived glioblastoma stem cells of proneural subtype; assay: as above
E34 [6] = patient-derived glioblastoma stem cells of proneural subtype; assay: as above
E28 [7] = patient-derived glioblastoma stem cells of classical subtype; assay: as above
E21 [8] = assay: phenotypic distance (Euclidean, principal components) from DMSO controls (arbitrary units); higher = stronger morphological change
FT3469 [9] = assay: as above
E57 [10] = assay: as above
E13 [11] = assay: as above
E31 [12] = assay: as above
E34 [13] = assay: as above
E28 [14] = assay: as above
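Wherever phenotypic distance (Euclidean, principal components) from DMSO controls is given: cell Painting imaging in 384-well plates, CellProfiler features reduced to at least 20 principal components, Euclidean distance versus same-plate DMSO vehicle wells (0.1% v/v), median over six images per well.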
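Wherever surviving fraction (nuclei count normalised to DMSO) is given: nuclei counted by high-content imaging of Hoechst-stained cells in laminin-coated 384-well plates, relative to 0.1% DMSO vehicle wells, with staurosporine as cell-death control.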

N=C(NCCCCCCNC(=N)NC(=N)Nc1ccc(Cl)cc1)NC(=N)Nc1ccc(Cl)cc1 [Chlorhexidine]
Conditions | phenotypic distance | surviving fraction
E13 [4], 4.1 nM | – | 1.03
E13 [4], 12.3 nM | – | 1.05
E13 [4], 37 nM | – | 0.948
E13 [4], 111.1 nM | – | 1.01
E13 [4], 333.3 nM | – | 0.969
E13 [4], 1000 nM | – | 0.943
E13 [4], 3000 nM | – | 0.409
E13 [11], 4.1 nM | 0.429 | –
E13 [11], 12.3 nM | 1.39 | –
E13 [11], 37 nM | 0.262 | –
E13 [11], 111.1 nM | 2.5 | –
E13 [11], 333.3 nM | 0.491 | –
E13 [11], 1000 nM | 0.464 | –
E13 [11], 3000 nM | 3.49 | –
E21 [1], 4.1 nM | – | 0.973
E21 [1], 12.3 nM | – | 1.01
E21 [1], 37 nM | – | 0.964
E21 [1], 111.1 nM | – | 0.946
E21 [1], 333.3 nM | – | 0.941
E21 [1], 1000 nM | – | 0.899
E21 [1], 3000 nM | – | 0.259
E21 [8], 4.1 nM | 0.562 | –
E21 [8], 12.3 nM | 0.828 | –
E21 [8], 37 nM | 0.696 | –
E21 [8], 111.1 nM | 0.95 | –
E21 [8], 333.3 nM | 0.783 | –
E21 [8], 1000 nM | 0.943 | –
E21 [8], 3000 nM | 6.35 | –
E28 [7], 4.1 nM | – | 1.05
E28 [7], 12.3 nM | – | 1.13
E28 [7], 37 nM | – | 1.1
E28 [7], 111.1 nM | – | 1.16
E28 [7], 333.3 nM | – | 1.11
E28 [7], 1000 nM | – | 0.694
E28 [7], 3000 nM | – | 0.289
E28 [14], 4.1 nM | 0.971 | –
E28 [14], 12.3 nM | 0.644 | –
E28 [14], 37 nM | 0.865 | –
E28 [14], 111.1 nM | 0.807 | –
E28 [14], 333.3 nM | 0.749 | –
E28 [14], 1000 nM | 1.41 | –
E28 [14], 3000 nM | 3.14 | –
E31 [5], 4.1 nM | – | 0.921
E31 [5], 12.3 nM | – | 0.969
E31 [5], 37 nM | – | 1.07
E31 [5], 111.1 nM | – | 1.04
E31 [5], 333.3 nM | – | 0.889
E31 [5], 1000 nM | – | 0.765
E31 [5], 3000 nM | – | 0.401
E31 [12], 4.1 nM | 0.524 | –
E31 [12], 12.3 nM | 0.525 | –
E31 [12], 37 nM | 0.809 | –
E31 [12], 111.1 nM | 0.944 | –
E31 [12], 333.3 nM | 1.22 | –
E31 [12], 1000 nM | 2.29 | –
E31 [12], 3000 nM | 2.76 | –
E34 [6], 4.1 nM | – | 0.914
E34 [6], 12.3 nM | – | 0.993
E34 [6], 37 nM | – | 0.955
E34 [6], 111.1 nM | – | 0.752
E34 [6], 333.3 nM | – | 1.03
E34 [6], 1000 nM | – | 0.892
E34 [6], 3000 nM | – | 0.659
E34 [13], 4.1 nM | 0.526 | –
E34 [13], 12.3 nM | 0.799 | –
E34 [13], 37 nM | 0.756 | –
E34 [13], 111.1 nM | 0.826 | –
E34 [13], 333.3 nM | 0.445 | –
E34 [13], 1000 nM | 0.747 | –
E34 [13], 3000 nM | 3.01 | –
E57 [3], 4.1 nM | – | 0.972
E57 [3], 12.3 nM | – | 1.03
E57 [3], 37 nM | – | 0.962
E57 [3], 111.1 nM | – | 1.03
E57 [3], 333.3 nM | – | 0.967
E57 [3], 1000 nM | – | 0.838
E57 [3], 3000 nM | – | 0.307
E57 [10], 4.1 nM | 0.332 | –
E57 [10], 12.3 nM | 0.353 | –
E57 [10], 37 nM | 0.497 | –
E57 [10], 111.1 nM | 0.85 | –
E57 [10], 333.3 nM | 0.64 | –
E57 [10], 1000 nM | 1.98 | –
E57 [10], 3000 nM | 4.85 | –
FT3469 [2], 4.1 nM | – | 1.05
FT3469 [2], 12.3 nM | – | 0.955
FT3469 [2], 37 nM | – | 1.1
FT3469 [2], 111.1 nM | – | 0.981
FT3469 [2], 333.3 nM | – | 0.883
FT3469 [2], 1000 nM | – | 0.806
FT3469 [2], 3000 nM | – | 0.537
FT3469 [9], 4.1 nM | 1.53 | –
FT3469 [9], 12.3 nM | 0.951 | –
FT3469 [9], 37 nM | 0.654 | –
FT3469 [9], 111.1 nM | 0.806 | –
FT3469 [9], 333.3 nM | 0.554 | –
FT3469 [9], 1000 nM | 1.03 | –
FT3469 [9], 3000 nM | 2.68 | –
